We go through one molecule from patent US7390510B2, “Preparation of hypericin bonded with poly-N-vinylamides” (Sanochemia Pharmazeutika AG, priority 2000, dated 2008).

Series [1] can be described thus: Time-dependent solubility of hypericin after complexation by PVP (absorption and fluorescence, FIG. 1). The series is classed as physicochemical.
The conditions of series [2]: in vivo; cited from earlier work.

Turning to `Cc1cc(O)c2c(=O)c3c(O)cc(O)c4c5c(O)cc(O)c6c(=O)c7c(O)cc(C)c8c1c2c(c34)c(c78)c65` [hypericin], in series [1] (aqueous solution, with or without PVP), the “solubility state in aqueous environment” value is listed as “forms at once insoluble aggregates”. Besides, the “absorption in the relevant spectral region” value in series [1] (aqueous, hypericin+PVP after 30, 60, 180 minutes) is “no absorption”. The biological half-life in series [2] was 34-38 h.
